We go through twelve molecules from publication PMC10350920, “Development of a 2,4-Diaminothiazole Series for the Treatment of Human African Trypanosomiasis Highlights the Importance of Static–Cidal Screening of Analogues” (Journal of Medicinal Chemistry, 2023).

In data set [1] the test system is BSF T. b. brucei “single marker” S427. Briefly: Drug sensitivity assay with bloodstream-form T. brucei. The settings on record: for EC50: mean values, number of replicates in parentheses. The format is cell-based. The procedure: (§1) Drug sensitivity assays with BSF T. b. brucei “single marker” S427 and human MRC-5 fibroblasts were conducted as previously described.[43]

Data set [2] concerns human MRC-5 fibroblasts. As to the kind of experiment: Mammalian cell counter screen (MRC-5). The settings on record: for SI: selectivity index (EC50 MRC5/EC50 T. brucei). The format is cell-based. Here is the method: as §1
In general terms: A counterscreen serves to expose hits that act by an unwanted route or on another target.

The nature of data set [3]: Mammalian cell counter screen (MRC-5). Type of data set: cell-based, human. The settings on record: human, MRC-5 fibroblasts; mean values; number of replicates in parentheses. Here is the method:
as §1

Data set [4] can be described thus: Mouse liver microsomal intrinsic clearance. The format is in vitro ADME. Here is the method:
Test compounds (0.5 μM) were incubated with female CD1 mouse liver microsomes (Xenotech LLC; 0.5 mg mL^–1 50 mM potassium phosphate buffer, pH 7.4), and the reaction started with the addition of excess NADPH (8 mg mL^–1 50 mM potassium phosphate buffer, pH 7.4). Immediately, at 0 min, and then at 3, 6, 9, 15, and 30 min, an aliquot (50 μL) of the incubation mixture was removed and mixed with acetonitrile (100 μL) to stop the reaction. The internal standard was added to all samples, the samples were centrifuged to sediment the precipitated protein, and the plates were then sealed prior to UPLC–MS/MS analysis using a Quattro Premier XE (Waters Corporation, USA). XLfit (IDBS, UK) was used to calculate the exponential decay and consequently the rate constant (k) from the ratio of the peak area of the test compound to the internal standard at each time point. The rate of intrinsic clearance (CLint) of each test compound was then calculated using the following calculation [drawing 3] where V (mL mg^–1 protein) is the incubation volume mg^–1 protein added and the microsomal protein yield is taken as 52.5 mg protein g^–1 liver. Verapamil (0.5 μM) was used as a positive control to confirm acceptable assay performance.

As to “1-(4-Amino-2-((3-(difluoromethoxy)phenyl)amino)thiazol-5-yl)-2-((1,1,1-trifluoropropan-2-yl)oxy)ethanone [Compound 54]”, in data set [1], the 50% effective concentration (EC50) – broadly, the concentration needed to bring the measured effect to its halfway point – is 0.02 µM. Also, in data set [2], the half-maximal effective concentration (EC50) is greater than 50 µM and the SI is 2500.
For the molecule `COC(C)(C)C(=O)c1sc(NC2CCCCC2)nc1N` [Compound 17, 1-(4-Amino-2-(cyclohexylamino)thiazol-5-yl)-2-methoxy-2-methylpropan-1-one], the EC50 in data set [1] (Trypanosoma brucei) is 1.9 µM; in data set [3], greater than 50 µM. This molecule also showed an SI in data set [2] greater than 26. Further, the “CLint (mouse)” value in data set [4] was 3.8 mL·min/g.
As to `Nc1nc(NC2CCCCC2)sc1C(=O)C1CCC1` [Compound 19, (4-Amino-2-(cyclohexylamino)thiazol-5-yl)cyclobutylmethanone], the EC50 was found to be 0.37 µM in data set [1] (Trypanosoma brucei) and 13 µM in data set [3]. For the same molecule, the “CLint (mouse)” value in data set [4] came out at 21 mL·min/g.
Regarding `Cc1ccc(C(=O)c2sc(NC3CCCCC3)nc2N)cc1` [Compound 24, (4-Amino-2-(cyclohexylamino)thiazol-5-yl)(p-tolyl)methanone], the results for the EC50 in data set [1] (Trypanosoma brucei) and in data set [3] were 0.28 µM and greater than 50 µM, respectively. This molecule had an SI in data set [2] greater than 179.
As for `Nc1nc(NC2CCCCC2)sc1C(=O)c1ccccc1F` [Compound 27, (4-Amino-2-(cyclohexylamino)thiazol-5-yl)(2-fluorophenyl)methanone], the concentration for a half-maximal effect (EC50) in data set [1] (Trypanosoma brucei) is 0.07 µM. The SI in data set [2] was found to be 29. Besides, the “CLint (mouse)” value in data set [4] worked out at 9.7 mL·min/g.
As for `O=C(c1cnc(NC2CCCCC2)s1)c1c(F)cccc1F` [Compound 33, (2-(Cyclohexylamino)thiazol-5-yl)(2,6-difluorophenyl)methanone], the “reduction (loss, drop off) in potency against T. brucei relative to parent analogue” value in data set [1] (SAR comparison) is reported as greater than 20 fold. Moreover, the values for the EC50 in data set [1] (Trypanosoma brucei) and in data set [3] were 15 µM and 47 µM, respectively. The molecule further returned an SI in data set [2] of 3.
For `CC(C)(F)CC(=O)c1sc(Nc2ccc(F)c(F)c2)nc1N` [Compound 41, 1-(4-Amino-2-((3,4-difluorophenyl)amino)thiazol-5-yl)-3-fluoro-3-methylbutan-1-one], the EC50 in data set [1] (Trypanosoma brucei) came out at 0.56 µM; in data set [3], 46 µM. In data set [2], this molecule showed an SI of 82.
In the case of `CC(C)(C)OCC(=O)c1sc(Nc2ccc(F)c(F)c2)nc1N` [Compound 43, 1-(4-Amino-2-((3,4-difluorophenyl)amino)thiazol-5-yl)-2-(tert-butoxy)ethanone], the EC50 is 0.1 µM in data set [1] (Trypanosoma brucei) and greater than 50 µM in data set [3]. The molecule further yielded an SI in data set [2] of 500.
The corresponding values for `CCOCC(=O)c1sc(Nc2ccc(F)c(F)c2)nc1N` [Compound 44, 1-(4-Amino-2-((3,4-difluorophenyl)amino)thiazol-5-yl)-2-ethoxyethanone] are 0.15 µM, greater than 50 µM and 333.
For the molecule `CC(C)OCCC(=O)c1sc(Nc2ccc(F)c(F)c2)nc1N` [Compound 45, 1-(4-Amino-2-((3,4-difluorophenyl)amino)thiazol-5-yl)-3-isopropoxypropan-1-one], the values for the EC50 in data set [1] (Trypanosoma brucei) and in data set [3] were 2.6 µM and greater than 50 µM, respectively. Besides, the SI in data set [2] is 19.
The corresponding values for `Nc1nc(Nc2ccc(F)c(F)c2)sc1C(=O)COC(CF)CF` [Compound 48, 1-(4-Amino-2-((3,4-difluorophenyl)amino)thiazol-5-yl)-2-((1,3-difluoropropan-2-yl)oxy)ethanone] are 0.05 µM, greater than 50 µM and 1000.
The corresponding values for `Nc1nc(Nc2ccc(F)c(F)c2)sc1C(=O)COC(C(F)(F)F)C(F)(F)F` [Compound 49, 1-(4-Amino-2-((3,4-diflurorophenyl)amino)thiazol-5-yl)-2-(((1,1,1,3,3,3)-hexafluoropropan-2-yl)oxy)ethanone] are 0.02 µM, 13 µM and 650.
